A short description of one series: in vitro. As to conditions: human, CC50, uninfected A549 cells, CellTiter-Glo.
In series [1] the test system is Influenza strain A549 A/WSN/33 (H1N1). In words: microbe, parasite or virus in culture. The format is cell-based. As to conditions: Influenza A virus, A549, 20 h, A549 cells, influenza A/WSN/33 (H1N1), 20 hours incubation; read-out: A549_A(H1N1) EC50.

16 molecules from patent US11312727B1, “Macrocyclic flu endonuclease inhibitors” (Janssen BioPharma, Inc., priority 2018, dated 2022) can be followed below.

By CC50 is commonly meant the concentration giving 50% cytotoxicity. Lower therefore signals greater toxicity to the cells. The EC50 is the concentration giving half of the maximal effect.

As for `C[C@@H]1/C=C\COc2cccc3c2[C@@H](c2ccccc2SC3)N2CN1C(=O)c1c(O)c(=O)ccn12` (single isomer, unassigned) [Compound 138AB, (13*R,21a*S,Z)-16-hydroxy-13-methyl-6,10,13,21a-tetrahydro-7,8-(epiprop[1]en[1]yl[3]ylidene)-14,21-methanobenzo[6,7]thiepino[4,5-c]pyrido[1,2-f][1]oxa[5,6,9]triazacyclotridecine-15,17-dione], the CC50 in the series “in vitro” was above 50 nM. Also, in series [1], the EC50 amounted to 1.5 nM.

`O=C1c2c(O)c(=O)ccn2N2CN1CCOCCOc1ccccc1[C@H]2c1ccccc1` (single isomer, unassigned) [Compound 99A, (2*R)-18-hydroxy-2-phenyl-9,12-dioxa-1,15,22-triazatetracyclo[13.7.1.03,8.017,22]tricosa-3,5,7,17,20-pentaene-16,19-dione] showed a CC50 in “in vitro” above 1000 nM. Moreover, the EC50 in series [1] is above 500 nM.

`CC[C@@H]1/C=C/COc2cc(F)c(F)c3c2[C@H](c2ccccc2SC3)N2CN1C(=O)c1c(O)c(=O)ccn12` (single isomer, unassigned) [Compound 126AB, (9*R,17a*R,E)-9-ethyl-24,25-difluoro-12-hydroxy-2,6,9,17a-tetrahydro-3,4-(epiprop[1]en[1]yl[3]ylidene)-10,17-methanobenzo[6,7]thiepino[4,5-c]pyrido[1,2-f][1]oxa[5,6,9]triazacyclotridecine-11,13-dione]: the CC50 in “in vitro” was above 200 nM. Besides, the EC50 in series [1] is above 100 nM.

On to `CC[C@@H]1/C=C/COc2cc(F)ccc2[C@H](c2ccccc2)N2CN1C(=O)c1c(O)c(=O)ccn12` (single isomer, unassigned) [Compound 89BB, (9*R,18*S,E)-9-ethyl-3-fluoro-12-hydroxy-18-phenyl-6,9-dihydro-18H-10,17-methanobenzo[b]pyrido[1,2-f][1]oxa[5,6,9]triazacyclotridecine-11,13-dione], for which the CC50 in “in vitro” was above 200 nM. Besides, in series [1], the EC50 is 3 nM.

In “in vitro”, `O=C1c2c(O)c(=O)ccn2N2CN1[C@@H](C1CC1)/C=C/COc1c(ccc(F)c1F)[C@H]2c1ccccc1` (single isomer, unassigned) [Compound 152BA, (9*S,18*R,*E)-9-cyclopropyl-3,4-difluoro-12-hydroxy-18-phenyl-6,9-dihydro-18H-10,17-methanobenzo[b]pyrido[1,2-f][1]oxa[5,6,9]triazacyclotridecine-11,13-dione] yielded a CC50 above 200 nM. In addition, the EC50 in series [1] stood at 1.3 nM.

In “in vitro”, `O=C1c2c(O)c(=O)ccn2N2CN1CCCCCOc1ccccc1C2c1ccccc1` (centres unmarked) [Compound 9, 15-hydroxy-2-phenyl-12,13,14,16-tetrahydro-11H-4-oxa-1(1,3)-pyrido[2,1-f][1,2,4]triazina-3(1,2)-benzenacyclononaphane-14,16-dione] showed a CC50 above 2000 nM. For the same molecule, the EC50 in series [1] is 453 nM.

Take `Cc1cccc2c1OC/C=C\CN1CN([C@@H]2c2ccccc2)n2ccc(=O)c(O)c2C1=O` (single isomer, unassigned) [Compound 110B, (18*R,Z)-12-hydroxy-4-methyl-18-phenyl-6,9-dihydro-18H-10,17-methanobenzo[b]pyrido[1,2-f][1]oxa[5,6,9]triazacyclotridecine-11,13-dione]: the CC50 in the series “in vitro” was above 200 nM. Moreover, in series [1], the EC50 is above 100 nM.

In the series “in vitro”, `O=C1c2c(O)c(=O)ccn2N2CN1CCCCCc1ncccc1[C@@H]2c1ccccc1` (single isomer, unassigned) [Compound 23B, (18*S)-12-hydroxy-18-phenyl-5,6,7,8,9,18-hexahydro-10,17-methanodipyrido[1,2-b:2′,3′-k][1,2,5]triazacyclotridecine-11,13-dione] yielded a CC50 above 1000 nM. Further, in series [1], the EC50 is 12200 nM.

On to `O=C1c2c(O)c(=O)ccn2N2CN1C/C=C\COc1ccccc1[C@H]2c1cccc(F)c1` (single isomer, unassigned) [Compound 63A, (18*R,Z)-18-(3-fluorophenyl)-12-hydroxy-6,9-dihydro-18H-10,17-methanobenzo[b]pyrido[1,2-f][1]oxa[5,6,9]triazacyclotridecine-11,13-dione], for which the CC50 in the series “in vitro” was above 2000 nM. Also, the EC50 in series [1] is above 1000 nM.

For `O=C1c2c(O)c(=O)ccn2N2CN1CC/C=C/COc1ccccc1[C@@H]2c1ccccc1` [Compound 10A, (2S,E)-15-hydroxy-2-phenyl-12,13,14,16-tetrahydro-11H-4-oxa-1(1,3)-pyrido[2,1-f][1,2,4]triazina-3(1,2)-benzenacyclononaphan-6-ene-14,16-dione], in the series “in vitro”, the CC50 was above 2000 nM. In addition, the EC50 in series [1] is above 1000 nM.

`CC[C@H]1/C=C\COc2cccc3c2[C@H](c2ccccc2SC3)N2CN1C(=O)c1c(O)c(=O)ccn12` [Compound 92AA, (13S,21aR,Z)-13-ethyl-16-hydroxy-6,10,13,21a-tetrahydro-7,8-(epiprop[1]en[1]yl[3]ylidene)-14,21-methanobenzo[6,7]thiepino[4,5-c]pyrido[1,2-f][1]oxa[5,6,9]triazacyclotridecine-15,17-dione] had a cytotoxic concentration (CC50) in “in vitro” above 1000 nM. In addition, in series [1], the EC50 is 108 nM.

In “in vitro”, `O=C1c2c(O)c(=O)ccn2N2CN1C[C@@H]1C[C@H]1COc1ccccc1[C@H]2c1ccccc1` (single isomer, unassigned) [Compound 80BB, (1a*R,8*R,17a*R)-14-hydroxy-8-phenyl-1a,2,17,17a-tetrahydro-1H,8H-9,16-methanobenzo[b]cyclopropa[k]pyrido[1,2-f][1]oxa[5,6,9]triazacyclotridecine-13,15-dione] gave a CC50 above 1000 nM. In addition, the EC50 in series [1] was above 500 nM.

In the case of `CC(C)[C@H]1/C=C/COc2c(F)cccc2[C@@H](c2ccccc2)N2CN1C(=O)c1c(O)c(=O)ccn12` (single isomer, unassigned) [Compound 124AA, (9*S,18*R,*E)-4-fluoro-12-hydroxy-9-isopropyl-18-phenyl-6,9-dihydro-18H-10,17-methanobenzo[b]pyrido[1,2-f][1]oxa[5,6,9]triazacyclotridecine-11,13-dione], the CC50 in the series “in vitro” was above 200 nM. Besides, in series [1], the EC50 was above 100 nM.

As to `COC[C@H]1/C=C/COc2c(ccc(F)c2F)[C@@H](c2ccccc2)N2CN1C(=O)c1c(O)c(=O)ccn12` (single isomer, unassigned) [Compound 153BB, (9*R,18*R,*E)-3,4-difluoro-12-hydroxy-9-(methoxymethyl)-18-phenyl-6,9-dihydro-18H-10,17-methanobenzo[b]pyrido[1,2-f][1]oxa[5,6,9]triazacyclotridecine-11,13-dione], the CC50 in the series “in vitro” was above 100 nM. In addition, in series [1], the EC50 was found to be 2.6 nM.

`O=C1c2c(O)c(=O)ccn2N2CN1C[C@H]1C[C@@H](COc3cccc4c3[C@H]2c2ccccc2SC4)C1` (single isomer, unassigned) [Compound 161B] had a 50% cytotoxic concentration (CC50) in “in vitro” above 100 nM. Also, the EC50 in series [1] turned out to be 15 nM.

As to `O=C1c2c(O)c(=O)ccn2N2CN1CC/C=C\COc1ccc(F)c3c1[C@H]2c1cccc(F)c1SC3` (single isomer, unassigned) [Compound 151B, (1*S,13*Z)-20,25-difluoro-7-hydroxy-16-oxa-23-thia-2,3,10-triazahexacyclo[15.12.1.12,10.03,8.021,30.024,29]hentriaconta-4,7,13,17,19,21(30),24(29),25,27-nonaene-6,9-dione], the CC50 in “in vitro” was above 100 nM. In addition, in series [1], the EC50 is 4.4 nM.
